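Method: 48-hour compound exposure of cells in 96-well plates, five concentrations, linear interpolation of endpoints. GI50 = concentration required for 50% inhibition of growth.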 The source made the active and inactive calls. Rule as the data show it: active = GI50 up to about 1.1 µM and inactive = higher. Bounds are passed on as bounds.

Test systems include A549; EKVX; HCT-15; KM-20L2; NCI-H23; NCI-H522; OVCAR-3; OVCAR-4; SF-295; SN12C; SNB-19; SW-620; TK-10; U-251; UACC-257; UACC-62; Malme-3M; Hs-578T; MDA-N; PC-3.
Test in all cases: DTP human tumour cell line panel, 48 h

A word on the GI50: it is the concentration at which growth is held to half of that of the control. Turning to `C=CCc1cc(OC)c2c(c1)C(O)CC(c1ccc(OC)c(OC)c1)O2` (configuration not stated), the GI50 in the test on A549 is > 100 µM (inactive); with EKVX it was > 100 µM (inactive); in the test with HCT-15, over 100 µM; in the test on KM-20L2 it was > 100 µM (inactive); in the test on NCI-H23, > 100 µM (inactive); with NCI-H522, > 100 µM (inactive). The GI50 with OVCAR-3, in the test on OVCAR-4, with SF-295, in the test with SN12C, in the test with SNB-19 and with SW-620 was > 100 µM (inactive) each time. Besides, the GI50 in the test on TK-10 was > 100 µM (inactive); with U-251 it was > 100 µM (inactive); with UACC-257 it was 72.4 µM (inactive); in the test with UACC-62, > 100 µM (inactive).
For `CS(=O)(=O)Sc1ccc(Cl)cc1`, the GI50 was 3.75 µM (inactive) with A549; 3.82 µM (inactive) in the test on EKVX; 10.1 µM in the test with HCT-15; 11.9 µM (inactive) in the test on KM-20L2; 11.6 µM (inactive) in the test with Malme-3M; 13.8 µM (inactive) in the test with NCI-H23. Moreover, the GI50 in the test on NCI-H522 is 3.24 µM (inactive); in the test with OVCAR-3, 5.87 µM (inactive); in the test on OVCAR-4, 13.7 µM (inactive); in the test with SF-295, 3.04 µM (inactive); with SN12C it was 3.69 µM (inactive); in the test on SNB-19 it was 3.4 µM (inactive). The GI50 in the test with SW-620 is 12.7 µM (inactive); in the test on TK-10, 14 µM (inactive); in the test on U-251, 2.84 µM (inactive); in the test with UACC-257, 8.53 µM (inactive).
`COc1cc(/C=C/C(=O)c2sc(NNC(C)=O)nc2C)ccc1O`: the GI50 in the test on A549 was > 100 µM (inactive); in the test with EKVX it was > 100 µM (inactive); in the test on HCT-15 it was over 100 µM; in the test on KM-20L2, > 100 µM (inactive); in the test on Malme-3M, > 100 µM (inactive); with NCI-H23 it was > 100 µM (inactive). Further, the GI50 with NCI-H522, in the test with OVCAR-3, in the test with SF-295, with SN12C, with SW-620 and with TK-10 was > 100 µM (inactive) in each case. In addition, the GI50 in the test with U-251, in the test with UACC-257 and with UACC-62 was > 100 µM (inactive) throughout.
Take `CCCN(CCC)c1c([N+](=O)[O-])cc(C(=O)N(CC)CC)cc1[N+](=O)[O-]`: the GI50 is 12.3 µM (inactive) with A549; 18.6 µM (inactive) in the test with EKVX; 21.4 µM with HCT-15; 18.4 µM (inactive) in the test on KM-20L2; 16.3 µM (inactive) in the test on Malme-3M; 7.55 µM (inactive) in the test with NCI-H23. Further, the GI50 with NCI-H522 was 10.2 µM (inactive); with OVCAR-3, 14.5 µM (inactive); with SF-295, 23 µM (inactive); in the test with SN12C it was 22.4 µM (inactive); in the test on SNB-19, 20 µM (inactive); with SW-620 it was 28.6 µM (inactive). Also, the GI50 was 29 µM (inactive) in the test with TK-10, 15.5 µM (inactive) in the test on U-251, 16.3 µM (inactive) in the test on UACC-257 and 17.7 µM (inactive) with UACC-62.
Turning to `C/C(=N\NC(=O)CC#N)c1c(O)cc(C)oc1=O`, the GI50 with A549 was > 100 µM (inactive); in the test on EKVX it was > 100 µM (inactive); with HCT-15 it was over 100 µM; with KM-20L2 it was > 100 µM (inactive); in the test on Malme-3M, > 100 µM (inactive); with NCI-H23, > 100 µM (inactive). Also, the GI50 in the test with OVCAR-4, in the test on SF-295, with SN12C, with SNB-19, in the test with SW-620 and in the test on TK-10 was > 100 µM (inactive) in each case. Besides, the GI50 in the test with U-251, in the test with UACC-257 and in the test on UACC-62 was > 100 µM (inactive) in each case.
For `Clc1ccc(/N=N/c2nc3ccccc3nc2/N=N/c2ccc(Cl)cc2Cl)c(Cl)c1`, the GI50 in the test with A549 was > 100 µM (inactive); in the test on EKVX it was > 100 µM (inactive); in the test with HCT-15, over 100 µM; in the test on KM-20L2 it was > 100 µM (inactive); with Malme-3M, > 100 µM (inactive); in the test with NCI-H23, > 100 µM (inactive). For the same compound, the GI50 in the test on NCI-H522 is 60.1 µM (inactive); with OVCAR-3, 70 µM (inactive); with OVCAR-4 it was > 100 µM (inactive); with SF-295, > 100 µM (inactive); in the test with SN12C, > 100 µM (inactive); in the test on SNB-19 it was 65.8 µM (inactive). Further, the GI50 in the test with SW-620, with TK-10, with U-251 and in the test with UACC-257 was > 100 µM (inactive) throughout.
On to `O=C(O)C12C3CCCC1C2CC3` (configuration not stated), for which the GI50 was > 100 µM (inactive) with A549; > 100 µM (inactive) in the test with EKVX; over 100 µM in the test on HCT-15; > 100 µM (inactive) in the test with KM-20L2; > 100 µM (inactive) in the test on Malme-3M; > 100 µM (inactive) with NCI-H23. Moreover, the GI50 in the test with NCI-H522, with OVCAR-3, in the test with SF-295, in the test with SN12C, in the test with SNB-19 and in the test with TK-10 was > 100 µM (inactive) each time. The GI50 in the test on U-251, in the test on UACC-257 and with UACC-62 was > 100 µM (inactive) in each case.
As for `O=C(Nc1ccccc1)O/N=C(/CBr)c1ccccc1`, the GI50 was 34 µM (inactive) in the test on A549; 17.1 µM (inactive) with EKVX; 4.04 µM with HCT-15; 26.2 µM (inactive) with Hs-578T; 6.87 µM (inactive) in the test with MDA-N; 13 µM (inactive) with Malme-3M. For the same compound, the GI50 with NCI-H23 is 7.35 µM (inactive); with NCI-H522, 8.85 µM (inactive); with OVCAR-3 it was 17.7 µM (inactive); with OVCAR-4 it was 15.1 µM (inactive); with PC-3, 12.6 µM (inactive); in the test on SF-295 it was 26 µM (inactive). Further, the GI50 in the test with SN12C was 8.22 µM (inactive); with SNB-19 it was 20.6 µM (inactive); in the test with SW-620, 5.35 µM (inactive); with TK-10 it was 18.1 µM (inactive); in the test on U-251, 14.5 µM (inactive); in the test on UACC-257, 17.8 µM (inactive). Further, in the test on UACC-62, the GI50 was 12.3 µM (inactive).
On to `CN(C)c1ccc(/C=C2\N=C(c3ccccc3)N(/N=C3\C(=O)Nc4ccccc43)C2=O)cc1`, for which the GI50 in the test with A549 is 74.1 µM (inactive); with EKVX, 27 µM (inactive); in the test on HCT-15, 61.5 µM; with Hs-578T, 38.8 µM (inactive); in the test with MDA-N, 32.7 µM (inactive); with Malme-3M, 45.9 µM (inactive). Moreover, the GI50 in the test with NCI-H23 was > 100 µM (inactive); in the test with NCI-H522, 23.4 µM (inactive); in the test with OVCAR-3, 16.8 µM (inactive); with OVCAR-4 it was 32.4 µM (inactive); in the test on PC-3, 56.5 µM (inactive); in the test on SF-295, 69.8 µM (inactive). The GI50 with SN12C is 56.9 µM (inactive); with SNB-19, > 100 µM (inactive); in the test on SW-620, 65 µM (inactive); in the test on TK-10 it was 53.2 µM (inactive); in the test on U-251, 76.6 µM (inactive); in the test on UACC-257, 85.3 µM (inactive). Also, the GI50 in the test on UACC-62 was > 100 µM (inactive).

The record behind these values is ChEMBL document CHEMBL1201862, “PubChem BioAssay data set” (2004).
